In brackets after ≈: the same amount, converted by molar mass. Several values for one entry are separate records, joined by “and”; a condition that tells them apart may be missing. Identical values can stand only once. Values belong to the compound of their own block, whether it stands above or below them.
How the values were obtained:
Test in all cases: ≥ marks a high value that may be exact or a test limit, other limits are often not marked, values filed in µg/mL are converted to µM
[1] = system: Staphylococcus aureus MRSA-16
[2] = system: Staphylococcus aureus MRSA-G
[3] = system: Staphylococcus aureus ATCC 25923
[4] = system: Escherichia coli ATCC 25922
[5] = system: Pseudomonas aeruginosa PAO1
[6] = system: Pseudomonas aeruginosa ATCC 27853
[7] = system: Pseudomonas aeruginosa PA006
[8] = system: Klebsiella pneumoniae ATCC 700603
[9] = system: Pseudomonas aeruginosa Pa4-SA2
[10] = system: Pseudomonas aeruginosa Pa1-SA2
[11] = system: Salmonella enterica subsp. enterica serovar Typhimurium ATCC 14028
[12] = system: Staphylococcus aureus ATCC 29313
[13] = system: Staphylococcus aureus ATCC 9144
[14] = system: Escherichia coli ATCC 11775
Escherichia coli = system: Escherichia coli
[15] = system: Pseudomonas aeruginosa ATCC 25668
[16] = system: Bacillus subtilis ATCC 6633
Acinetobacter sp. = system: Acinetobacter sp.
Stemphylium sp. = system: Stemphylium sp.
[17] = system: Xanthomonas vesicatoria B229RI
[18] = system: Xanthomonas vesicatoria 687.3
Botrytis cinerea = system: Botrytis cinerea
Escherichia coli 1106 = system: Escherichia coli 1106
Aerococcus viridans = system: Aerococcus viridans
Fusarium oxysporum L = system: Fusarium oxysporum L
[19] = system: Pseudomonas syringae pv. syringae
Salmonella typhimurium = system: Salmonella typhimurium
[20] = system: Pseudomonas syringae pv. phaseolicola
Staphylococcus aureus = system: Staphylococcus aureus
Micrococcus luteus = system: Micrococcus luteus
[21] = system: Xanthomonas campestris pv. campestris
Fusarium haematococcum = system: Fusarium haematococcum
Fusarium oxysporum = system: Fusarium oxysporum
Fusarium culmorum = system: Fusarium culmorum
Trichoderma viride = system: Trichoderma viride
Escherichia coli D22 = system: Escherichia coli D22
Aspergillus fumigatus = system: Aspergillus fumigatus
[22] = system: Pseudomonas syringae pv. Maculicola
[23] = system: Pseudomonas syringae pv. Valerianella
Neurospora crassa = system: Neurospora crassa
Fusarium oxysporum M = system: Fusarium oxysporum M
Escherichia coli D31 = system: Escherichia coli D31
Alternaria dauci = system: Alternaria dauci
Bacillus subtilis = system: Bacillus subtilis
[24] = system: Pseudomonas syringae pv. Pisi
Alternaria brassicicola = system: Alternaria brassicicola
[25] = system: Clavibacter michiganensis subsp. michiganensis
Pseudomonas syringae = system: Pseudomonas syringae
Candida albicans 01U = system: Candida albicans 01U
[26] = system: Cryptococcus neoformans L26
Candida albicans 38U = system: Candida albicans 38U
[27] = system: Cryptococcus neoformans L30
Candida parapsilosis = system: Candida parapsilosis
Trichophyton rubrum = system: Trichophyton rubrum
[28] = system: Trichophyton mentagrophytes

MIC [1]: 4 µM (≈ 9.95 µg/mL) | MIC [2]: 4 µM (≈ 9.95 µg/mL) | MIC [3]: 4 µM and > 2 µM | MIC [4]: 2 µM and > 1 µM
SMILES: CC[C@H](C)[C@H](NC(=O)[C@H](C)NC(=O)[C@H](CCCCN)NC(=O)[C@@H](NC(=O)CNC(=O)CNC(=O)[C@H](Cc1c[nH]c2ccccc12)NC(=O)[C@H](Cc1ccccc1)NC(=O)[C@H](CCCCN)NC(=O)[C@H](CCCCN)NC(=O)[C@H](Cc1ccccc1)NC(=O)[C@@H](N)Cc1ccccc1)C(C)C)C(=O)N[C@@H](Cc1ccccc1)C(=O)N[C@@H](CCCCN)C(=O)NCC(=O)N[C@@H](C)C(=O)N[C@@H](CCCN=C(N)N)C(=O)N[C@@H](CCCCN)C(=O)NCC(=O)N[C@@H](Cc1c[nH]c2ccccc12)C(=O)N[C@@H](CCCCN)C(=O)O [FFKKFWGGVKAIFKGARKGWK]

MIC [5]: 192 µM (≈ 512 µg/mL) | MIC [6]: > 192 µM | MIC [7]: 12 µM (≈ 32 µg/mL) | MIC [8]: > 300 µM | MIC [9]: ≥ 48 µM | MIC [10]: ≥ 96 µM | MIC [11]: > 300 µM | MIC [4]: 300 µM (≈ 800 µg/mL)
SMILES: CC[C@H](C)[C@H](NC(=O)[C@H](CCCCN)NC(=O)CNC(=O)[C@H](CCSC)NC(=O)[C@H](C)NC(=O)[C@H](Cc1cnc[nH]1)NC(=O)[C@H](C)NC(=O)[C@@H](NC(=O)[C@H](CC(C)C)NC(=O)[C@H](CCC(N)=O)NC(=O)[C@H](CCCN=C(N)N)NC(=O)CNC(=O)[C@H](C)NC(=O)[C@H](CC(=O)O)NC(=O)[C@H](CCCCN)NC(=O)[C@@H](NC(=O)[C@@H](NC(=O)[C@H](CC(=O)O)NC(=O)[C@H](Cc1ccccc1)NC(=O)[C@@H](NC(=O)CN)C(C)C)[C@@H](C)CC)[C@@H](C)CC)C(C)C)C(=O)N[C@@H](C)C(=O)N[C@@H](CCC(=O)O)C(=O)N[C@@H](CCCCN)C(=O)N[C@H](C(N)=O)C(C)C [GVFDIIKDAGRQLVAHAMGKIAEKV]
MIC [12]: ≥ 300 µM

MIC [13]: 2.7 µM (≈ 4 µg/mL) | MIC [14]: 0.676 µM (≈ 0.999 µg/mL) | MIC (Escherichia coli): 2.7 µM (≈ 4 µg/mL) | MIC [15]: 5.41 µM (≈ 7.99 µg/mL) | MIC [16]: 5.41 µM (≈ 7.99 µg/mL) | MIC (Acinetobacter sp.): 21.6 µM (≈ 32 µg/mL)
SMILES: CC[C@H](C)[C@H](N)C(=O)N[C@@H](CCCCN)C(=O)N[C@@H](Cc1c[nH]c2ccccc12)C(=O)N[C@@H](C)C(=O)NCC(=O)N[C@@H](CCCCN)C(=O)N[C@@H](CC(C)C)C(=O)N[C@@H](Cc1ccccc1)C(=O)N[C@@H](CCCCN)C(=O)N[C@@H](CC(C)C)C(=O)N[C@@H](Cc1ccccc1)C(=O)N[C@@H](CCCCN)C(N)=O [IKWAGKLFKLFK]

SMILES: CC[C@H](C)[C@@H]1NC(=O)[C@H](CCCCN)NC(=O)[C@H]([C@@H](C)CC)NC(=O)[C@H](CCC(N)=O)NC(=O)[C@H](CCCN=C(N)N)NC(=O)[C@@H](NC(=O)[C@@H](NC(=O)[C@H](CO)NC(=O)[C@@H](N)CCCN=C(N)N)C(C)C)CSSC[C@@H](C(=O)N[C@H](C(=O)N[C@@H](CC(N)=O)C(=O)N[C@@H](CCCN=C(N)N)C(=O)N2CCC[C@H]2C(=O)N[C@@H](Cc2ccc(O)cc2)C(=O)O)[C@@H](C)O)NC(=O)[C@H](CCCCN)NC(=O)[C@H](Cc2ccc(O)cc2)NC(=O)[C@H](Cc2ccc(O)cc2)NC(=O)[C@@H]2CSSC[C@H](NC1=O)C(=O)N[C@@H](CCCN=C(N)N)C(=O)N[C@@H](CCCN=C(N)N)C(=O)N[C@@H](CCCN=C(N)N)C(=O)NCC(=O)NCC(=O)N2 [RSVCRQIKICRRRGGCYYKCTNRPY]
MIC (Stemphylium sp.): 5.66 µM (≈ 17.4 µg/mL) | MIC [17]: 2.12 µM (≈ 6.53 µg/mL) | MIC [18]: 2.12 µM (≈ 6.53 µg/mL) | MIC (Botrytis cinerea): 8.49 µM (≈ 26.1 µg/mL) | MIC (Escherichia coli 1106): 9.49 µM (≈ 29.2 µg/mL) | MIC (Aerococcus viridans): 0.424 µM (≈ 1.31 µg/mL) | MIC (Fusarium oxysporum L): 2.83 µM (≈ 8.7 µg/mL) | MIC [19]: 18.2 µM (≈ 55.9 µg/mL) | MIC (Salmonella typhimurium): 4.24 µM (≈ 13.1 µg/mL) | MIC [20]: 2.12 µM (≈ 6.53 µg/mL) | MIC (Staphylococcus aureus): 21.2 µM (≈ 65.3 µg/mL) | MIC (Micrococcus luteus): 0.949 µM (≈ 2.92 µg/mL) | MIC [21]: 4.24 µM (≈ 13.1 µg/mL) | MIC (Fusarium haematococcum): 8.49 µM (≈ 26.1 µg/mL) | MIC (Fusarium oxysporum): 8.49 µM (≈ 26.1 µg/mL) | MIC (Fusarium culmorum): 4.24 µM (≈ 13.1 µg/mL) | MIC (Trichoderma viride): 8.49 µM (≈ 26.1 µg/mL) | MIC (Escherichia coli D22): 30 µM (≈ 92.3 µg/mL) | MIC (Aspergillus fumigatus): ≥ 35.4 µM | MIC [22]: 4.24 µM (≈ 13.1 µg/mL) | MIC [23]: 18.2 µM (≈ 55.9 µg/mL) | MIC (Neurospora crassa): 8.49 µM (≈ 26.1 µg/mL) | MIC (Fusarium oxysporum M): 2.83 µM (≈ 8.7 µg/mL) | MIC (Escherichia coli D31): 4.24 µM (≈ 13.1 µg/mL) | MIC (Alternaria dauci): 11.3 µM (≈ 34.8 µg/mL) | MIC (Bacillus subtilis): 2.12 µM (≈ 6.53 µg/mL) | MIC [24]: 9.49 µM (≈ 29.2 µg/mL) | MIC (Alternaria brassicicola): 4.24 µM (≈ 13.1 µg/mL) | MIC [25]: 9.49 µM (≈ 29.2 µg/mL) | MIC (Pseudomonas syringae): 2.12 µM (≈ 6.53 µg/mL)

MIC (Candida albicans 01U): 21.6 µM (≈ 32 µg/mL) | MIC [26]: ≥ 173 µM | MIC (Candida albicans 38U): 21.6 µM (≈ 32 µg/mL) | MIC [27]: ≥ 173 µM | MIC (Candida parapsilosis): ≥ 173 µM | MIC (Trichophyton rubrum): 21.6 µM (≈ 32 µg/mL) | MIC [28]: ≥ 173 µM
SMILES: CC[C@H](C)[C@H](NC(=O)[C@H](CC(C)C)NC(=O)[C@H](CCC(=O)O)NC(=O)[C@H](CO)NC(=O)[C@H](CCCN=C(N)N)NC(=O)[C@@H](N)CO)C(=O)N[C@H](C(=O)N[C@@H](Cc1cnc[nH]1)C(=O)N[C@@H](CCC(N)=O)C(=O)N[C@@H](CCCN=C(N)N)C(=O)N[C@@H](CCSC)C(=O)N[C@@H](CCCCN)C(N)=O)C(C)C [SRSELIVHQRMK]

Reference: DBAASP
